Converted amounts (≈) assume the structure as drawn. Like-named read-outs stand apart in the source and are kept apart here. Non-standard residues stand in square brackets, D forms with d. Residues, ends and D or L forms follow the SMILES beside them. dDip = N[C@@H](C(=O)O)C(c1ccccc1)c1ccccc1; 2Nal = N[C@@H](Cc1ccc2ccccc2c1)C(=O)O; d2Nal = N[C@H](Cc1ccc2ccccc2c1)C(=O)O
Assays:
[1] = system: Methicillin-resistant Staphylococcus aureus MRSA (ATCC BAA-1556); conditions: ATCC BAA-1556
[2] = system: S. aureus ATCC 29213; conditions: ATCC 29213
[3] = system: Pseudomonas aeruginosa (ATCC 27883)
[4] = system: Escherichia coli (ATCC 25922); conditions: ATCC 25922
[5] = in vitro; conditions: human, fresh human red blood cells (washed), pH 7.4

Compound | MIC MRSA ATCC BAA-1556 [1] [µg/mL] | MIC S. aureus ATCC 29213 [2] [µg/mL] | MIC P. aeruginosa ATCC 27883 ([3]; ATCC 27883) [µg/mL] | MIC E. coli ATCC 25922 [4] [µg/mL] | HC50 at 0.5 h [5] [µg/mL] | MIC P. aeruginosa ATCC 27883 ([3]; P. aeruginosa ATCC 27883) [µg/mL]
NCCCC[C@@H]1NC(=O)[C@@H](CCCCN)NC(=O)[C@H](CCCCN)NC(=O)[C@@H](CCCCN)NC(=O)[C@@H](Cc2ccc3ccccc3c2)NC(=O)[C@@H](Cc2ccc3ccccc3c2)NC(=O)[C@H](Cc2c[nH]c3ccccc23)NC1=O [IFX-128, c[lys-Lys-lys-Lys-Trp-naI-naI]] (cyclo(KW[d2Nal][d2Nal][dK]K[dK])) | 6.2 (≈ 5.67 µM) | 6.2 (≈ 5.67 µM) | 64 (≈ 58.5 µM) | 64 (≈ 58.5 µM) | 590 | –
N=C(N)NCCC[C@@H](N)C(=O)N[C@H](CCCNC(=N)N)C(=O)N[C@H](CCCNC(=N)N)C(=O)N[C@H](CCCNC(=N)N)C(=O)N[C@@H](Cc1c[nH]c2ccccc12)C(=O)N[C@H](Cc1ccc2ccccc2c1)C(=O)N[C@H](Cc1ccc2ccccc2c1)C(=O)O [IFX-109-1] (H-[dR][dR][dR][dR]W[d2Nal][d2Nal]-OH) | 3.1 (≈ 2.53 µM) | 3.1 (≈ 2.53 µM) | 12.5 (≈ 10.2 µM) | 12.5 (≈ 10.2 µM) | 375 | –
N=C(N)NCCC[C@H]1NC(=O)[C@H](Cc2ccc3ccccc3c2)NC(=O)[C@H](Cc2ccc3ccccc3c2)NC(=O)[C@H](Cc2c[nH]c3ccccc23)NC(=O)[C@@H](CCCNC(=N)N)NC(=O)[C@@H](CCCNC(=N)N)NC(=O)[C@@H](CCCNC(=N)N)NC1=O [IFX-113, c[arg-arg-arg-arg-Trp-NaI-NaI]] (cyclo([dR][dR][dR][dR]W[2Nal][2Nal])) | 1.5 (≈ 1.24 µM) | 3.1 (≈ 2.57 µM) | – | 12.5 (≈ 10.4 µM) | 365 | 12.5 (≈ 10.4 µM)
N=C(N)NCCC[C@H](NC(=O)[C@@H](CCCNC(=N)N)NC(=O)[C@@H](N)CCCNC(=N)N)C(=O)N[C@H](CCCNC(=N)N)C(=O)N[C@@H](C(=O)N[C@@H](C(=O)N[C@@H](C(=O)O)C(c1ccccc1)c1ccccc1)C(c1ccccc1)c1ccccc1)C(c1ccccc1)c1ccccc1 [IFX-070-1] (H-R[dR]R[dR][dDip][dDip][dDip]-OH) | 3.1 (≈ 2.36 µM) | 3.1 (≈ 2.36 µM) | 12.5 (≈ 9.52 µM) | 6.2 (≈ 4.72 µM) | 380 | –
NCCCC[C@@H]1NC(=O)[C@H](CCCCN)NC(=O)[C@H](CCCCN)NC(=O)[C@H](Cc2ccc3ccccc3c2)NC(=O)[C@H](Cc2ccc3ccccc3c2)NC(=O)[C@H](Cc2c[nH]c3ccccc23)NC(=O)[C@H](CCCCN)NC(=O)[C@H](CCCCN)NC1=O [IFX-131, c[Lys-Lys-Lys-Lys-Lys-Trp-NaI-NaI]] (cyclo([2Nal][2Nal]KKKKKW)) | 12.5 (≈ 10.2 µM) | 6.2 (≈ 5.08 µM) | 64 (≈ 52.4 µM) | 128 (≈ 105 µM) | 690 | –
NCCCC[C@@H]1NC(=O)[C@@H](CCCCN)NC(=O)[C@H](CCCCN)NC(=O)[C@@H](Cc2ccc3ccccc3c2)NC(=O)[C@@H](Cc2ccc3ccccc3c2)NC(=O)[C@H](Cc2c[nH]c3ccccc23)NC(=O)[C@@H](CCCCN)NC1=O [IFX-129, c[Lys-lys-Lys-lys-Trp-naI-naI]] (cyclo(K[dK]K[dK]W[d2Nal][d2Nal])) | 3.1 (≈ 2.84 µM) | 3.1 (≈ 2.84 µM) | 64 (≈ 58.5 µM) | 64 (≈ 58.5 µM) | 420 | –
N=C(N)NCCC[C@@H]1NC(=O)[C@H](Cc2ccc3ccccc3c2)NC(=O)[C@H](Cc2ccc3ccccc3c2)NC(=O)[C@H](Cc2c[nH]c3ccccc23)NC(=O)[C@@H](CCCNC(=N)N)NC(=O)[C@H](CCCNC(=N)N)NC(=O)[C@H](CCCNC(=N)N)NC1=O [IFX-105, c[Arg-Arg-Arg-arg-Trp-NaI-NaI]] (cyclo([2Nal][2Nal]RRR[dR]W)) | 3.1 (≈ 2.57 µM) | 3.1 (≈ 2.57 µM) | – | 12.5 (≈ 10.4 µM) | 130 | 12.5 (≈ 10.4 µM)
N=C(N)NCCC[C@H]1NC(=O)[C@@H](CCCNC(=N)N)NC(=O)[C@@H](CCCNC(=N)N)NC(=O)[C@@H](Cc2ccc3ccccc3c2)NC(=O)[C@@H](Cc2ccc3ccccc3c2)NC(=O)[C@@H](Cc2c[nH]c3ccccc23)NC(=O)[C@@H](CCCNC(=N)N)NC1=O [IFX-115, c[arg-arg-arg-arg-trp-naI-naI]] (cyclo([dR][dR][dR][dR][dW][d2Nal][d2Nal])) | 3.1 (≈ 2.57 µM) | 3.1 (≈ 2.57 µM) | 25 (≈ 20.7 µM) | 12.5 (≈ 10.4 µM) | 360 | –

Source: patent US20220289794A1, “SYNTHETIC ANTIMICROBIAL PEPTIDES” (priority 2019, published 2022)
